Test results from publication PMC6154737, “Leishmanicidal Activity and Structure-Activity Relationships of Essential Oil Constituents” (Molecules : A Journal of Synthetic Chemistry and Natural …, 2017).
≈ marks a conversion by molar mass, not a printed value. Where two headings read alike, the source gives them in different places.

Columns and labels:
L. chagasi promastigotes = conditions: cited from earlier work
[1] = system: L. amazonensis promastigotes; conditions: cited from earlier work
[2] = Cytotoxicity on L929 fibroblasts (MTT assay); type: cell-based; conditions: mouse, MTT, mean ± SD; for viability at 24 h, 50 µg mL^−1: 50 µg mL^−1, 24 h; for viability at 24 h, 100 µg mL^−1: 100 µg mL^−1, 24 h
Method: (§1) Culture of the mouse fibroblast cell line (L929, ATCC CCL-1) were maintained in Dulbecco′s Modified Eagle Medium (DMEM, Sigma-Aldrich, St. Louis, MO, USA) supplemented with 10% heat-inactivated FBS and 1% streptomycin/penicillin (5000 units + 5 mg mL^−1, Sigma-Aldrich, St. Louis, MO, USA), and kept in a humid atmosphere at 37 °C and 5% CO2.
(§2) Fibroblasts were distributed in 96-well plates (2 × 10^4 cells/well) and incubated for 24 h in a 5% CO2 atmosphere at 37 °C. After this period, the medium was removed and the adhered cells were treated with the compounds at concentrations of 50.0 and 100.0 μg mL^−1 for 24 h under the same incubation conditions. Untreated cells were used as controls and considered with 100% cell viability. After the treatment period, cell viability was determined by MTT assay as described in ISO 10993-5 [50], with modifications. For this, the cell monolayer was washed twice with PBS (pH 7.4), and then 200 μl MTT (0.5 mg mL^−1 in PBS, Sigma-Aldrich, St. Louis, MO, USA) was added to each well. The plates were again incubated under the same conditions as listed above, for a period of 3 h. After the incubation time, the MTT was aspirated and the formazan crystals were solubilized in 200 μL of DMSO. After 10 min, the optical density (OD) was measured on a microplate reader at the wavelength of 570 nm. The results were expressed as percentage of viability according to the following equation:(3) Viability=Absorbance (treated cell)/Absorbance (control cell) × 100
(§3) Each experiment was conducted in quadruplicate and repeated at least three times. Data were expressed as mean ± standard deviation (±SD).

L929 fibroblasts = experiment: Cytotoxicity on L929 fibroblasts (MTT assay); type: cell-based; conditions: intensity scale of Rodrigues et al.; for Cytotoxicity class (symbol) at 100 µg mL^−1: 100 µg mL^−1, 24 h; for Cytotoxicity class (symbol) at 100 µg mL^−1 / Cytotoxicity class (symbol) at 50 µg mL^−1: MTT; for Cytotoxicity class (symbol) at 50 µg mL^−1: 50 µg mL^−1, 24 h
Method: as §1, §2, §3

[3] = system: Leishmania amazonensis promastigotes; experiment: In vitro leishmanicidal activity (resazurin viability) against promastigotes; type: cell-based; conditions: for Activity against L. amazonensis promastigotes in words: concentrations up to 1000.0 μg mL^−1
Method: Culture of L. amazonensis (LTCP 9667 obtained by Giudice et al.) promastigotes were maintained at 24 °C in Schneider′s Drosophila medium (Sigma-Aldrich, St. Louis, MO, USA; pH 6.7) supplemented with 10% (v/v) inactivated fetal bovine serum (FBS, Gibco by Thermo Fisher Scientific, Carlsbad, CA, USA), ampicillin 500 mg m^−1, 1% and gentamicin 40 mg mL^−1, 0.1% (Sigma-Aldrich, St. Louis, MO, USA).
Promastigotes of L. amazonensis in log-phase growth were distributed in a 96-well plate (5 × 10^5 cells/well) and treated with the evaluated compounds solubilized in dimethyl sulfoxide (DMSO, Sigma-Aldrich, St. Louis, MO, USA) and diluted in Schneider′s medium in different concentrations (between 0.0 and 1000.0 μg mL^−1) and incubated for 24 h at 24 °C in a biochemical oxygen demand (BOD) incubator. Promastigotes incubated in the absence of test compounds were used as a negative control. Promastigotes treated with Amphotericin B (Sigma-Aldrich, St. Louis, MO, USA) were used as a positive control. The cellular viability of the parasites was evaluated using the colorimetric method of resazurin, adapted from Kulshrestha et al.. Briefly, after the treatment time, 50 μL of resazurin (2 mM mL^−1 in phosphate-buffered saline (PBS)) (Sigma-Aldrich, St. Louis, MO, USA) was added per well and the plates were again incubated for 6 h at 24 °C, then read in a spectrophotometer (Synerg H1, Biotek, Winooski, VT, USA) at 570 and 595 nm. Absorbance was used to calculate cell viability based on the following equation:(1) Viability (%)=Abs.570 nm−(Abs.595 nm × RO) test/Abs.570 nm –(Abs.595 nm × RO) control × 100 wherein:(2) RO= OD medium with resazurin in 570 nm−OD medium without resasurin in 570 nm/OD medium with resazurin in 595 nm−OD medium without resazurin in 595 nm
The IC50 values were obtained by a non-linear regression analysis from the viability values using the GraphPad Prism 5.0 program. All experiments were performed in triplicate from three independent experiments and the data were expressed as mean ± standard deviation (±SD).

[4] = system: promastigotes of L. infantum chagasi; parameters: method as in PMID 27591136; conditions: up to the dose of 750 μg mL^−1; cited from earlier work
[5] = system: promastigotes of L. major; parameters: method as in PMID 24365244; conditions: doses up to 400 μg mL^−1; cited from earlier work
[6] = system: promastigotes of L. infantum; parameters: method as in PMID 24365244; conditions: doses up to 400 μg mL^−1; cited from earlier work
[7] = system: promastigotes of L. tropica; parameters: method as in PMID 24365244; conditions: doses up to 400 μg mL^−1; cited from earlier work
[8] = system: L. donovani promastigotes; parameters: method as in PMID 18095647; conditions: cited from earlier work
L. panamensis = system: L. panamensis; parameters: method as in earlier work; conditions: cited from earlier work
[9] = L. chagasi promastigotes, ref 28
[10] = Leishmania amazonensis, 24 h, read-out: IC50 (µg mL^−1)
[11] = Leishmania amazonensis, 24 h, promastigotes, 24 h incubation, resazurin method, mean ± SD of three independent experiments in triplicate, read-out: IC50
[12] = Leishmania amazonensis, 24 h, promastigotes, 24 h incubation, resazurin method, mean ± SD of three independent experiments in triplicate, read-out: IC50 (µg mL^−1)

Compound: Cc1ccc(C(C)C)cc1O [Carvacrol, 2-methyl-5-propan-2-ylphenol]
- IC50 (L. chagasi promastigotes; L. chagasi promastigotes, ref 27): 2.3 µg/mL (≈ 15.3 µM)
- IC50 (L. chagasi promastigotes; [9]): 28.0 µg/mL (≈ 186 µM)
- IC50 ([1]; L. amazonensis promastigotes, 72 h incubation, p-nitrophenol phosphate): 15.3 µg/mL (≈ 102 µM)
- viability at 24 h, 50 µg mL^−1 ([2]; L929 fibroblast cells): 51.3 ± 3%
- viability at 24 h, 100 µg mL^−1 ([2]; L929 fibroblast cells): 46.1 ± 2.9%
- Cytotoxicity class (symbol) at 100 µg mL^−1 (L929 fibroblasts): * (Moderate cytotoxicity (viability between >30% and <50%))
- Cytotoxicity classification in words at 100.0 μg mL^−1 (L929 fibroblasts): moderate cytotoxicity
- IC50 ([3]; Leishmania amazonensis, 24 h): 169 ± 16 µM
- IC50 [3, 10]: 25.4 ± 2.4 µg/mL

Compound: C=CCc1ccc(O)c(OC)c1 [Eugenol, 2-methoxy-4-prop-2-enylphenol]
- IC50 (L. chagasi promastigotes; promastigote forms of L. chagasi): 56.1 µg/mL (≈ 342 µM)
- viability at 24 h, 50 µg mL^−1 ([2]; L929 fibroblast cells): 78.1 ± 7%
- viability at 24 h, 100 µg mL^−1 ([2]; L929 fibroblast cells): 63.1 ± 1.7%
- IC50 ([3]; Leishmania amazonensis, 24 h): 505 ± 37.8 µM
- IC50 [3, 10]: 82.9 ± 6.2 µg/mL

Compound: C=C[C@](C)(O)CCC=C(C)C [(−)-Linalool, (3R)-3,7-dimethylocta-1,6-dien-3-ol]
- Changes in the viability of promastigotes in words [4]: did not identify changes in the viability
- IC50 ([1]; L. amazonensis promastigotes): 0.0043 µg/mL (≈ 0.0279 µM)
- viability at 24 h, 50 µg mL^−1 ([2]; L929 fibroblast cells): 65.7 ± 8.2%
- viability at 24 h, 100 µg mL^−1 ([2]; L929 fibroblast cells): 66.7 ± 7.8%
- IC50 [3, 11]: 1790 ± 156 µM
- IC50 [3, 12]: 276 ± 24 µg/mL

Compound: CC(C)[C@@H]1CC[C@@H](C)C[C@H]1O [(−)-Menthol, (1R,2S,5R)-5-methyl-2-propan-2-ylcyclohexan-1-ol]
- viability at 24 h, 50 µg mL^−1 ([2]; L929 fibroblast cells): 83.8 ± 8%
- viability at 24 h, 100 µg mL^−1 ([2]; L929 fibroblast cells): 81.2 ± 2.4%
- Cytotoxicity class (symbol) at 50 µg mL^−1 (L929 fibroblasts): ** (Non-cytotoxic (viability >80%))
- Cytotoxicity classification in words at 50.0 μg mL^−1 (L929 fibroblasts): non-cytotoxic
- Cytotoxicity class (symbol) at 100 µg mL^−1 (L929 fibroblasts): ** (Non-cytotoxic (viability >80%))
- IC50 [3, 11]: 1270 ± 76.8 µM
- IC50 [3, 12]: 198 µg/mL
- IC50 ([3]; promastigotes, 24 h incubation, resazurin method, mean ± SD of three independent experiments in triplicate, listed as (–)-Menthol (7)): 198.9 ± 12.0 µg/mL

Compound: CC1(C)[C@@H]2CC[C@@]1(C)[C@H](O)C2 [Isoborneol, (1R,3R,4R)-4,7,7-trimethylbicyclo[2.2.1]heptan-3-ol]
- Leishmanicidal activity in words [5]: No leishmanicidal activity was found
- Leishmanicidal activity in words [6]: No leishmanicidal activity was found
- Leishmanicidal activity in words [7]: No leishmanicidal activity was found
- viability at 24 h, 50 µg mL^−1 ([2]; L929 fibroblast cells): 73.3 ± 9.4%
- viability at 24 h, 100 µg mL^−1 ([2]; L929 fibroblast cells): 72.9 ± 7.5%
- IC50 [3, 11]: 1230 ± 63.5 µM
- IC50 [3, 12]: 190 ± 9.8 µg/mL

Compound: C[C@@H]1[C@H](O)[C@@H](C)/C=C/C=C/C=C/C=C/C=C/C=C/C=C/[C@H](O[C@@H]2O[C@H](C)[C@@H](O)[C@H](N)[C@@H]2O)C[C@@H]2O[C@](O)(C[C@@H](O)C[C@@H](O)[C@H](O)CC[C@@H](O)C[C@@H](O)CC(=O)O[C@H]1C)C[C@H](O)[C@H]2C(=O)O [Amphotericin B, reference compound]
- IC50 [3, 11]: 0.054 ± 0.01 µM
- IC50 [3, 12]: 0.05 ± 0.01 µg/mL

Compound: CC1=CCC2C(C1)C2(C)C (stereo not shown) [Compound 3-Carene, 4,7,7-trimethylbicyclo[4.1.0]hept-3-ene]
- IC50 [8]: 27.0 µg/mL (≈ 198 µM)
- viability at 24 h, 50 µg mL^−1 ([2]; L929 fibroblast cells): 84.1 ± 6.4%
- viability at 24 h, 100 µg mL^−1 ([2]; L929 fibroblast cells): 48.7 ± 6.7%
- Cytotoxicity class (symbol) at 50 µg mL^−1 (L929 fibroblasts): ** (Non-cytotoxic (viability >80%))
- Cytotoxicity classification in words at 50.0 μg mL^−1 (L929 fibroblasts): non-cytotoxic
- Cytotoxicity class (symbol) at 100 µg mL^−1 (L929 fibroblasts): * (Moderate cytotoxicity (viability between >30% and <50%))
- Cytotoxicity classification in words at 100.0 μg mL^−1 (L929 fibroblasts): moderate cytotoxicity
- IC50 [3, 11]: 532 ± 136 µM
- IC50 [3, 12]: 72.5 ± 18.5 µg/mL

Compound: C=C(C)[C@@H]1CC=C(C)C(=O)C1 [(−)-Carvone, (5R)-2-methyl-5-prop-1-en-2-ylcyclohex-2-en-1-one]
- IC50 (L. chagasi promastigotes; [9]): > 300.0 µg/mL
- viability at 24 h, 50 µg mL^−1 [2]: 65.1 ± 4.7%
- viability at 24 h, 100 µg mL^−1 [2]: 58.2 ± 4.2%
- IC50 [3, 11]: 1300 ± 113 µM
- IC50 [3, 12]: 195 ± 16.9 µg/mL

Compound: Cc1ccc(C(C)C)c(O)c1 [Thymol, 5-methyl-2-propan-2-ylphenol]
- IC50 ([1]; L. amazonensis): 22.6 µg/mL (≈ 150 µM)
- viability at 24 h, 50 µg mL^−1 ([2]; L929 fibroblast cells): 64.5 ± 4%
- viability at 24 h, 100 µg mL^−1 ([2]; L929 fibroblast cells): 58.5 ± 6.7%
- IC50 (L. panamensis): 194.3 µg/mL (≈ 1290 µM)
- IC50 [3, 11]: 178 ± 24.6 µM
- IC50 [3, 12]: 26.8 ± 3.7 µg/mL

Compound: Cc1ccc(C(C)C)cc1 [p-Cymene, 1-methyl-4-propan-2-ylbenzene]
- IC50 (L. chagasi promastigotes; [9]): 149.1 µg/mL (≈ 1110 µM)
- viability at 24 h, 50 µg mL^−1 ([2]; L929 fibroblast cells): 91.2 ± 6.6%
- viability at 24 h, 100 µg mL^−1 ([2]; L929 fibroblast cells): 87.1 ± 6.7%
- Cytotoxicity class (symbol) at 50 µg mL^−1 (L929 fibroblasts): ** (Non-cytotoxic (viability >80%))
- Cytotoxicity classification in words at 50.0 μg mL^−1 (L929 fibroblasts): non-cytotoxic
- Cytotoxicity class (symbol) at 100 µg mL^−1 (L929 fibroblasts): ** (Non-cytotoxic (viability >80%))
- IC50 [3, 11]: > 7450 µM
- IC50 [3, 12]: > 1000 µg/mL
- Activity against L. amazonensis promastigotes in words [3]: no effect on the viability
- Activity against L. amazonensis promastigotes in words ([3]; listed as p-cymene): did not exhibit any activity
